We go through three compounds from paper PMC10928503 (Nature medicine, 2023).

Test [1] concerns the target T1, FpGNAT (acyl-CoA N-acetyltransferase from F. prausnitzii) (Faecalibacterium duncaniae, UniProt C7H1G6).
T1 sequence (C7H1G6 1-201): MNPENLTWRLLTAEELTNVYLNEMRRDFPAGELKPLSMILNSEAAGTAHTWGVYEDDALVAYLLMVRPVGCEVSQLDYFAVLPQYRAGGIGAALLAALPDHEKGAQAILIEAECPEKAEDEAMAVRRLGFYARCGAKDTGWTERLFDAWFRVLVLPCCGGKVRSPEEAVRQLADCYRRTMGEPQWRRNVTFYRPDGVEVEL
Kind of test: LC-MS/MS end-point acetylation assay. The format is biochemical. Particulars: 1 mM 5-ASA.

Test [2] deals with FcTHL (Firmicutes CAG:176 thiolase). In words: LC-MS/MS of N-acetyl 5-ASA formed, Michaelis-Menten. In kind it is biochemical, Firmicutes bacterium CAG:176. The following applies: 1 mM acetyl-CoA constant; 20 mM HEPES pH 7.5, 50 mM NaCl, 1 mM MgCl2, 1 mM TCEP, 5 uM enzyme, 37 °C.
The target in test [3] is Firmicutes CAG:176 thiolase (FcTHL) (Firmicutes CAG:176 (uncultured Firmicutes)). In words: crystal structure.

Consider `Nc1ccc(O)c(C(=O)O)c1` [5-ASA], for which the “LC-MS/MS end-point acetylation assay” value in test [1] (1 mM acetyl-CoA, 50 uM enzyme, pH 7.5, 37 °C, 6 h) is listed as “convert 5-ASA to N-acetyl-5-ASA in the presence of acetyl-CoA”. Also, in test [2], the Km (commonly the substrate concentration at which the rate is half of its maximum) amounted to 1880 ± 460 µM.

For `CC(=O)SCCNC(=O)CCNC(=O)[C@H](O)C(C)(C)COP(=O)(O)OP(=O)(O)OC[C@H]1O[C@@H](n2cnc3c(N)ncnc32)[C@H](O)[C@@H]1OP(=O)(O)O` [acetyl-CoA], the “LC-MS/MS end-point acetylation assay” value in test [1] (acetyl donor, same) was “convert 5-ASA to N-acetyl-5-ASA in the presence of acetyl-CoA”.

For “Firmicutes CAG:176 thiolase (FcTHL) (enzyme)”, in test [3], the stoichiometry N – broadly, a count of units in the complex or per binding partner – came to 4.
